The source of these data is article PMC4740378, “Export of malaria proteins requires co-translational processing of the PEXEL motif independent of phosphatidylinositol-3-phosphate binding” (Nature Communications, 2016).

In the assay the target is T1, p40PX (GST-p40PX, aa 1-148) (Homo sapiens, UniProt Q15080).
T1 construct: gene NCF4; PX domain, residues 1-148, N-terminal GST fusion (pGEX; glutathione-purified, detected with anti-GST), E. coli
T1 sequence (Q15080 1-148): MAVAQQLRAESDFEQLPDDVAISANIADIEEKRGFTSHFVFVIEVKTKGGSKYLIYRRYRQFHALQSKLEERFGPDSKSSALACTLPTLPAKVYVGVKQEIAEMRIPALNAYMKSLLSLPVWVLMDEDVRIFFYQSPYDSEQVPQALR
The experiment in a line: SPR, Biacore […], L1 chip with liposomes. Particulars: PC:PE:PI(3)P 75:20:5 liposomes, PC/PE control subtracted; 150 mM NaCl, 50 mM HEPES pH 7.5, 25 °C; own-purified protein. In kind it is binding.

With `CCCCCCCCCCCCCCCC(=O)OC[C@H](COP(=O)(O)O[C@@H]1[C@H](O)[C@H](OP(=O)(O)O)[C@@H](O)[C@H](O)[C@H]1O)OC(=O)CCCCCCCCCCCCCCC` [PI(3)P-diC16, D-myo-phosphatidylinositol 3-phosphate di-C16], the Kd is 195 nM.
